Results: paper PMC5653818, “A Brain Penetrant Mutant IDH1 Inhibitor Provides In Vivo Survival Benefit” (Scientific Reports, 2017)

Molecular target: IDH1 R132H (mutant isocitrate dehydrogenase 1) (Homo sapiens, UniProt O75874, R132H)
Experiment: coupled enzymatic assay (GAPDH/PGK/luciferase luminescence) with R132H IDH1 enzyme
Type: biochemical

Chain of IDH1 R132H (mutant isocitrate dehydrogenase 1) (O75874 2-414 R132H): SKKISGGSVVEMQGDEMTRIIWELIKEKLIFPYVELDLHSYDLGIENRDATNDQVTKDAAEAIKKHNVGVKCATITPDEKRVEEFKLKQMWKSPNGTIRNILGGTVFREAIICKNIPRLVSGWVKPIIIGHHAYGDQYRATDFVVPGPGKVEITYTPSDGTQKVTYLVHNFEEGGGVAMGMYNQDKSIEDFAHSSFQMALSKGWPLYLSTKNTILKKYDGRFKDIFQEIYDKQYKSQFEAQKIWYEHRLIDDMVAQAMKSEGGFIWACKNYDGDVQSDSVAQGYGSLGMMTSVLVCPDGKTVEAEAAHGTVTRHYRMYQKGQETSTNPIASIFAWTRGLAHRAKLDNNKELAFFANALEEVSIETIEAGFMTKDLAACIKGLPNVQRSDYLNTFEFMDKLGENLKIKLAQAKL

O=C(C1CCc2ccccc2CC1)N1Cc2cccnc2Nc2ccc(N3CCOCC3)cc21 [MRK-A]
IC50: 5 nM
